Values quoted from earlier work, collected in US20230000809A1, “TREATMENT OF DISORDERS ARISING FROM GENETIC MUTATION” (priority 2021, published 2023).
Counter-ions that a name gives are not always drawn.

How the values were obtained:
[1] = test system: gadolinium enhancing lesions; details: RRMS patients; after 24 weeks of treatment as compared to placebo
[2] = test system: nuclear factor kappa B (NF-κB)-dependent transcription of TNF-α induced genes; details: human endothelial cells, in vitro

SMILES | number of gadolinium enhancing lesions [1] | effect on NF-κB-dependent transcription of TNF-α induced genes [2]
COC(=O)/C=C/C(=O)OC [BG-12] | significant reduction | 
COC(=O)/C=C/C(=O)OC [DMF, dimethyl fumarate] |  | inhibitory effect
